Here are results for three molecules from patent US11897875B2, “Deuterated Alpha5 subunit-selective negative allosteric modulators of gamma-aminobutyric acid type a receptors as fast acting treatment for depression and mood disorders” (UNIVERSITY OF MARYLAND, BALTIMORE, priority 2017, dated 2024).

In data set [1] the test system is rats subjected to chronic multimodal stress. Briefly: open field test. It is filed as in vivo, rat. The note with it: 3 mg/kg. As to the method:
FIG. 4A is a schematic of the open field test. […] Behavioral measurements were made before commencing stress (baseline), immediately after 14 days of chronic multimodal stress, and 24 hours after an injection of NCGC-43 (3 mg/kg) or vehicle (DMSO solution).

Data set [2] has the same test system. Briefly: sucrose preference test in rats under chronic multimodal stress. Format: in vivo, rat. The note with it: for sucrose preference (sucrose solution consumed as percentage of total): single injection, NCGC-43 3 mg/kg or ketamine 20 mg/kg, 24 hours, 7 days, 14 days after injection, stress continued. As for the experimental part: In the sucrose preference test, rats were given an overnight two bottle choice task (in which the sucrose solution consumption is shown as a percentage of the total solution consumed) before commencing stress (baseline), immediately after 14 days of chronic multimodal stress, and 24 hours, 7 days, and 14 days after an injection of NCGC-43 (3 mg/kg, gray), ketamine (20 mg/kg, orange), or vehicle (DMSO solution, blue), all while continuing with daily chronic multimodal stress. A control group received neither stress nor drug (yellow).

For another data set, the system named is human liver hepatocytes. Briefly: metabolic stability in human hepatocytes in vitro. Format: in vitro ADME. The text has this:
(§1) Table 1, below, presents data regarding the half-life of […] in rat and human liver hepatocytes, in vitro, showing an increase in half-life for the deuterated compounds. Stability improved more in human hepatocytes compared to rat hepatocytes, with variation between the hepatocyte studies. […] Longer half-life also allows less frequent dosing. […] Deuteration preferably is located at the site of metabolism, since installing deuterium atoms at the site of metabolism more readily increases the half-life of the compound.

The subject of data set [3] is naïve rats and rats subjected to 14 days of chronic multimodal stress. Briefly: forced swim test. Format: in vivo, rat. The note with it: for time the animals spent immobile / latency until the animals ceased to struggle and become immobile: NCGC-43 3 mg/kg or ketamine 20 mg/kg, 24 hours after injection; for time the animals spent immobile: vs stressed animals given vehicle (FIG. 6A); for latency until the animals ceased to struggle and become immobile: vs stressed animals given vehicle (FIG. 6B). An excerpt:
NCGC-43 and ketamine both exert an antidepressant-like response in this test. […] See also FIG. 6C and FIG. 6D.

The test system of data set [4] is rats subjected to chronic multimodal stress. Briefly: social interaction test in rats after chronic multimodal stress. Format: in vivo, rat. The conditions noted are these: single injection, NCGC-43 3 mg/kg or ketamine 20 mg/kg; 24 hours after injection. As for the experimental part: […] In the social interaction test, rats were given a choice between spending time in a chamber with a novel caged juvenile rat and a chamber with an empty cage before commencing stress (baseline), immediately after 14 days of chronic multimodal stress, and 24 hours after an injection of NCGC-43 (3 mg/kg, gray), ketamine (20 mg/kg, orange), or vehicle (DMSO solution, blue). Social interaction computed as percent time spent with the novel animal. A control group received neither stress nor drug (yellow).

The nature of data set [5]: metabolic stability in rat hepatocytes in vitro. The note with it: rat liver hepatocytes. It is filed as in vitro ADME.
Excerpt: as §1

The next data set concerns rat liver hepatocytes. Briefly: metabolic stability in rat hepatocytes in vitro. The note with it: 3 hours. Format: in vitro ADME.
Excerpt: as §1

Data set [6] can be described thus: metabolic stability in human hepatocytes in vitro. The note with it: human liver hepatocytes; human hepatocytes in vitro. Format: in vitro ADME.
Excerpt: as §1

For data set [7] the following is noted: as a nootropic; cited from earlier work.
Data set [8] has as its system rats subjected to chronic multimodal stress. Briefly: elevated plus maze. Format: in vivo, rat. The conditions noted are these: NCGC-43 3 mg/kg or ketamine 20 mg/kg; 24 hours after injection. As for the experimental part: In the elevated plus maze, rats were given a choice between spending time in one of two arms of an elevated cross-shaped maze (one arm closed and the other arm open), immediately after 14 days of chronic multimodal stress, and 24 hours after an injection of NCGC-43 (3 mg/kg) or ketamine (20 mg/kg). A control group was unstressed and received a vehicle injection (DMSO).

On to `[2H]C([2H])([2H])c1onc(-c2ccc(F)cc2)c1COc1ccc(C(=O)N2CCS(=O)(=O)CC2)cn1` [NCGC-43, (1,1-dioxidothiomorpholino)(6-((3-(4-fluorophenyl)-5-(methyl-d3)isoxazol-4-yl)methoxy)pyridin-3-yl)methanone], for which the overall locomotor activity result in data set [1] (24 hours after injection (FIG. 4B)) is given as “neither chronic stress nor injection of NCGC-43 or vehicle had any significant effects”. Moreover, in data set [1] (24 hours after injection (FIG. 4C)), the “time spent in the corners and sides” value is given as “neither chronic stress nor injection of NCGC-43 or vehicle had any significant effects”. In data set [1] (24 hours after injection (FIG. 4D)), the “ratio of time spent in the center of the chamber to time spent in the corners/sides” value is reported as “neither chronic stress nor injection of NCGC-43 or vehicle had any significant effects”. Also, the “latency before the animals first entered the center of the chamber” value in [1] (24 hours after injection (FIG. 4E)) is listed as “mildly decreased the latency”. For the same molecule, the “antidepressant effects compared with ketamine” value in [2] (NCGC-43 3 mg/kg vs ketamine 20 mg/kg) is “comparable to ketamine”. Also, the “sucrose preference (sucrose solution consumed as percentage of total)” value in [2] is “restored sucrose preference in a rapid (within 24 hours) and persistent (up to 14 days) manner”. Further, in the data set on human liver hepatocytes (human hepatocytes in vitro), the “Half-life (hours)” value is given as “Stable” and the “Percentage Remaining at 3 Hours” value is reported as 100%. Besides, the “metabolic stability compared with non-deuterated RG-1662” value in the data set with human liver hepatocytes (rat and human hepatocytes in vitro, improved more in human) was “more metabolically stable”. Besides, the “time course of effect (responses at 1 hour and 24 hours)” value in [3] (3 mg/kg, 1 hour vs 24 hours after injection) is “rapid and persistent effects similar to those described previously for ketamine”. Also, in data set [3], the “time the animals spent immobile” value is reported as “a decrease in the time the animals spent immobile”; the “latency until the animals ceased to struggle and become immobile” value is “an increase in the latency”. Besides, in data set [3] (intraperitoneal, increasing doses, 1 or 24 hours after injection (FIG. 7)), the “latency to immobility, dose-response” value is “significant efficacy at 1 and 3 mg/kg”. The “social interaction (percent time spent with the novel animal)” value in data set [4] is on record as “restored their preference for interacting with a novel animal”. Besides, in data set [5], the half-life was 38.4 min. The “Percentage Remaining at 3 Hours” value in the data set with rat liver hepatocytes is 3.9%.

Regarding `Cc1onc(-c2ccc(F)cc2)c1COc1ccc(C(=O)N2CCS(=O)(=O)CC2)cn1` [RG-1662, (1,1-Dioxidothiomorpholino)(6-((3-(4-fluorophenyl)-5-methylisoxazol-4-yl)methoxy)pyridin-3-yl)methanone, reference compound], the figures for the “Percentage Remaining at 3 Hours” value in the data set with human liver hepatocytes (human hepatocytes in vitro) and in the data set with rat liver hepatocytes were 83.7% and 3.3%, respectively. The half-life in data set [6] is 720 min; in data set [5], 36 min. Further, the “efficacy in phase II clinical trials” value in [7] was “not efficacious”. Further, the “safety in phase II clinical trials” value in data set [7] is “safe”.

As to `CNC1(c2ccccc2Cl)CCCCC1=O` (stereo not drawn) [ketamine, reference compound], the “sucrose preference (sucrose solution consumed as percentage of total)” value in [2] is “restored sucrose preference in a rapid (within 24 hours) and persistent (up to 14 days) manner”. For the same molecule, in data set [3], the “time the animals spent immobile” value was “a decrease in the time the animals spent immobile”; the “latency until the animals ceased to struggle and become immobile” value was “an increase in the latency”. The “percent of time spent in the closed arm” value in data set [8] was “increased the percent of time the rat spent in the closed arm”. In addition, in data set [4], the “social interaction (percent time spent with the novel animal)” value is reported as “restored their preference for interacting with a novel animal”.
